Data taken from US8222218B2, “Cyclopropanated carbohydrates” (Seton Hall University, priority 2008, dated 2012).
Where two headings read alike, the source gives them in different places.

Key:
Type in all cases: in vivo
MES-induced seizures = assay: Maximal Electroshock Seizure (MES) test, mice; settings: Mus musculus, ip
Description: The MES test is a model for generalized tonic-clonic seizures. The seizures are highly reproducible and electrophysiologically consistent with human seizures. The test provides information about a compound's ability to prevent the spread of seizure when all neuronal circuits of the brain are maximally active. 60 Hz of alternating current (50 mA in mice, 150 mA in rats) is applied for 2 seconds via corneal electrodes that have been treated with an electrolyte solution containing an anesthetic (0.5% tetracaine HCl). Mice are tested at a variety of intervals after an i.p. injection of […] solution of the test compound (commonly in a 0.5% solution of methylcellulose) at 30, 100, and 300 mg/kg doses. Rats are examined after a 30 mg/kg (per os, p.o.) dose that is applied in a volume of 0.04 mL/g. An animal is considered “protected” from MES-induced seizures upon removal of the hind limb extensor component of the seizure.
(§1) Male and female albino CF1 mice (18-25 g, Charles River, Portage, Mich.) and male albino Sprague-Dawley rats (275-300 g, kindling test; 100-150 g all other tests; Charles River, Raleigh, N.C.) were used as experimental animals.

[1] = tested on: metrazole-induced clonic seizures; assay: Subcutaneous Metrazole Seizure Threshold Test (scMET), mice; settings: Mus musculus, sc
Procedure: The subcutaneous injection of metrazole, which is a convulsant, produces clonic seizures in laboratory animals. The scMET test is designed to identify compounds that raise the seizure threshold of an animal. Mice are pretreated with test compound at 30, 100, and 300 mg/kg doses in a similar manner to the MES test. Rats are treated with a 50 mg/kg dose (p.o.). At the previously determined TPE of the test compound, the dose of metrazole that will induce convulsions in 97% of animals (CD97: 85 mg/kg mice) is injected into the loose fold of the skin in the midline of the neck. The animals are placed in isolation cages to minimize stress and observed for the next 30 minutes for the presence or absence of seizures. An episode of clonic spasms (approximately 3-5 seconds) of the fore and/or hindlimbs, jaws or vibrissae is taken as the endpoint.
as §1

[2] = Acute toxicity, minimal motor impairment (rotorod), mice; settings: mice, rotorod; for TOX 30 0.5 h (animals toxic/tested) / TOX 30 4 h (animals toxic/tested): 30 mg/kg; for TOX 100 0.5 h (animals toxic/tested) / TOX 100 4 h (animals toxic/tested): 100 mg/kg; for TOX 300 0.5 h (animals toxic/tested) / TOX 300 4 h (animals toxic/tested): 300 mg/kg
Procedure: Toxicity was measured using the minimal motor impairment test described below.
Animals are monitored for overt signs of impaired neurological or muscular function to assess a compound's toxicity. In mice, the rotorod procedure is used to disclose minimal muscular or neurological impairment. When a mouse is placed on a rotating rod (6 rpm), the animal can maintain its equilibrium for long periods of time. The animal is considered toxic if it falls off the rotating rod three times during a 1 minute period. In rats, minimal motor deficit is indicated by ataxia, which is manifested by an abnormal, uncoordinated gait.

[3] = mice, i.p., 30 mg/kg, 0.5 h, read-out: MES 30 0.5 h (animals protected/tested)
[4] = mice, i.p., 30 mg/kg, 4 h, read-out: MES 30 4 h (animals protected/tested)
[5] = mice, i.p., 100 mg/kg, 0.5 h, read-out: MES 100 0.5 h (animals protected/tested)
[6] = mice, i.p., 100 mg/kg, 4 h, read-out: MES 100 4 h (animals protected/tested)
[7] = mice, i.p., 300 mg/kg, 0.5 h, read-out: MES 300 0.5 h (animals protected/tested)
[8] = mice, i.p., 300 mg/kg, 4 h, read-out: MES 300 4 h (animals protected/tested)
[9] = mice, 30 mg/kg, 0.4 h, read-out: scMET 30 0.4 h (animals protected/tested)
[10] = mice, 30 mg/kg, 0.5 h, read-out: scMET 30 0.5 h (animals protected/tested)
[11] = mice, 100 mg/kg, 0.4 h, read-out: scMET 100 0.4 h (animals protected/tested)
[12] = mice, 100 mg/kg, 0.5 h, read-out: scMET 100 0.5 h (animals protected/tested)
[13] = mice, 300 mg/kg, 0.4 h, read-out: scMET 300 0.4 h (animals protected/tested)
[14] = mice, 300 mg/kg, 0.5 h, read-out: scMET 300 0.5 h (animals protected/tested)

SMILES | responders at 30 mg/kg (MES-induced seizures; [3]) | responders at 30 mg/kg (MES-induced seizures; [4]) | responders at 100 mg/kg (MES-induced seizures; [5]) | responders at 100 mg/kg (MES-induced seizures; [6]) | responders at 300 mg/kg (MES-induced seizures; [7]) | responders at 300 mg/kg (MES-induced seizures; [8]) | responders at 30 mg/kg [1, 9] | responders at 30 mg/kg [1, 10] | responders at 100 mg/kg [1, 11] | responders at 100 mg/kg [1, 12] | responders at 300 mg/kg [1, 13] | responders at 300 mg/kg [1, 14] | TOX 30 0.5 h (animals toxic/tested) [2] | TOX 30 4 h (animals toxic/tested) [2] | TOX 100 0.5 h (animals toxic/tested) [2] | TOX 100 4 h (animals toxic/tested) [2] | TOX 300 0.5 h (animals toxic/tested) [2] | TOX 300 4 h (animals toxic/tested) [2] | further results
CCOC(=O)C1[C@@H]2[C@@H](OS(N)(=O)=O)[C@@H]3OC(C)(C)OC[C@H]3O[C@H]12 (stereo partly drawn) [Compound 8b, ethyl (4aR,5aS,6aS,7R,7aR)-2,2-dimethyl-7-(sulfamoyloxy)hexahydro-4H-cyclopropa[5,6]pyrano[3,2-d][1,3]dioxine-6-carboxylate] | 0% | 0% | 0% | 0% | 0% | 0% | 0% | 0% | 0% | 0% | 0% | 0% | 0/4 | 0/2 | 1/8 | 0/4 | 1/4 | 0/2 | 
CCOC(=O)C1[C@@H]2[C@@H](OC)[C@@H]3O[C@H](c4ccc(OC)cc4)OC[C@H]3O[C@H]12 (stereo partly drawn) [Compound 18, Ethyl (2R,4aR,5aS,6aS,7R,7aS)-7-methoxy-2-(4-methoxyphenyl)hexahydro-4H-cyclopropa[5,6]pyrano[3,2-d][1,3]dioxine-6-carboxylate] | 0% | 0% | 0% | 0% | 0% | 0% | 0% | 0% | 0% | 0% | 0% | 0% | 0/4 | 0/2 | 0/8 | 0/4 | 0/4 | 0/2 | 
CCOC(=O)[C@@H]1[C@H]2O[C@@H]3COC(C)(C)O[C@H]3[C@H](OC)[C@H]21 [Compound 9, Ethyl (4aR,5aS,6aS,7R,7aS)-7-methoxy-2.2-dimethylhexahydro-4H-cyclopropa[5,6]pyrano[3,2-d][1,3]dioxine-6-carboxylate] | 0% | 0% | 0% | 0% | 0% | 0% | 0% | 0% | 0% | 0% | 0% | 0% | 0/4 | 0/2 | 0/8 | 0/4 | 0/4 | 0/2 | 
CCOC(=O)[C@@H]1[C@H]2O[C@@H]3CO[Si](C(C)(C)C)(C(C)(C)C)O[C@H]3[C@H](OS(=O)(=O)N(C)C)[C@H]21 [Compound 5, (1S,1as,2R,2aR,6aR,7aS)-4,4-di-tert-butyl-2-dimethylsulfamoyloxy-hexahydro-3,5,7-trioxa-4-sila-cyclopropa[b]naphthalene-1-carboxylic acid ethyl ester] |  |  |  |  |  |  |  |  |  |  |  |  | 0/4 | 0/2 | 0/8 | 0/4 | 1/4 | 0/2 | responders at 30 mg/kg (MES-induced seizures; 0.5 h, read-out: MES 30 0.5 h (animals protected/tested)): 0%; responders at 100 mg/kg (MES-induced seizures; 0.5 h, read-out: MES 100 0.5 h (animals protected/tested)): 0%; responders at 300 mg/kg (MES-induced seizures; 0.5 h, read-out: MES 300 0.5 h (animals protected/tested)): 0%; responders at 30 mg/kg (MES-induced seizures; 4 h, read-out: MES 30 4 h (animals protected/tested)): 0%; responders at 100 mg/kg (MES-induced seizures; 4 h, read-out: MES 100 4 h (animals protected/tested)): 0%; responders at 300 mg/kg (MES-induced seizures; 4 h, read-out: MES 300 4 h (animals protected/tested)): 0%; responders at 30 mg/kg ([1]; 0.4 h, read-out: scMET 30 0.4 h (animals protected/tested)): 0%; responders at 100 mg/kg ([1]; 0.4 h, read-out: scMET 100 0.4 h (animals protected/tested)): 0%; responders at 300 mg/kg ([1]; 0.4 h, read-out: scMET 300 0.4 h (animals protected/tested)): 0%; responders at 30 mg/kg ([1]; 0.5 h, read-out: scMET 30 0.5 h (animals protected/tested)): 0%; responders at 100 mg/kg ([1]; 0.5 h, read-out: scMET 100 0.5 h (animals protected/tested)): 0%; responders at 300 mg/kg ([1]; 0.5 h, read-out: scMET 300 0.5 h (animals protected/tested)): 0%
CCOC(=O)C1[C@@H]2[C@@H](O)[C@@H]3O[C@H](c4ccc(C(C)(C)C)cc4)OC[C@H]3O[C@H]12 (stereo partly drawn) [Compound 20c, Ethyl (2R,4aR,5aS,6aR,7R,7aS)-2-(4-tert-butylphenyl)-7-hydroxyhexahydro-4H-cyclopropa[5,6]pyrano[3,2-d][1,3]dioxine-6-carboxylate] | 0% | 0% | 0% | 0% | 0% | 0% | 0% | 0% | 0% | 0% | 0% | 0% | 0/4 | 0/2 | 0/8 | 0/4 | 0/4 | 0/2 | 
CCOC(=O)C1[C@@H]2[C@@H](O)[C@@H]3OC(C)(C)OC[C@H]3O[C@H]12 (stereo partly drawn) [Compound 6a, Ethyl (4aR,5aS,6aR,7R,7aS)-7-hydroxy-2,2-dimethylhexahydro-4H-cyclopropa[5,6]pyrano[3,2-d][1,3]dioxine-6-carboxylate] | 0% | 0% | 0% | 0% | 0% | 0% | 0% | 0% | 0% | 0% | 0% | 0% | 0/4 | 0/2 | 0/8 | 0/4 | 0/4 | 0/2 | 
